Test results reported in US20110207807A1, “NEW USE FOR HOMOISOFLAVONE OR A SALT THEREOF” (Catholic University Industry Academy Cooperation Foundation, priority 2008, published 2011).

Key:
Type in all cases: cell-based, human
p38 = experiment: UV-induced p38 phosphorylation in HaCaT cells (Western blot); conditions: 1 μg/mL, UV (FIG. 2c)
Procedure: In order to identify the intracellular factors affecting COX-2 expression that are affected by homoisoflavanone, Western blotting was carried out in the same manner as in Example 2-1 except for treating with homoisoflavanone at 1 μg/mL, irradiating UV for 45 minutes and using rabbit anti-p-cytosolic phospholipase A2 (cPLA2) antibody, rabbit anti-cPLA2 antibody, rabbit anti-ERK antibody, rabbit anti-p-ERK antibody, rabbit anti-p38 antibody or rabbit anti-p-p38 antibody and using anti-rabbit IgG-HRP conjugation antibody (Zymed) as secondary antibody. Positive control groups were treated with 1 μM SB203580 (A.G. Scientific, Inc.) as p38 inhibitor or 10 μM PD98059 (A.G. Scientific, Inc.) as MEK 1 inhibitor instead of homoisoflavanone.

IL-8 = experiment: UV-induced IL-8 mRNA expression in HaCaT cells (real-time PCR); conditions: 1 μg/mL, UV 100 J/m^2, compared to control group (FIG. 3)
Procedure: 1×10^6 HaCaT cells were inoculated on a 100-mm culture dish and cultured in DMEM containing 10% FBS for 24 hour. Then, the cells were starved by culturing for 24 hours in DMEM containing 1% FBS. Then, after treating with homoisoflavanone at 1 μg/mL for 1 hour, the cells were washed 3 times with PBS and irradiated with UV at 100 J/m^2 to induce increase of cytokines. Immediately after the UV radiation, the cells were washed again with PBS and further cultured for 2 or 5 hours in DMEM containing 1% FBS which had been treated with homoisoflavanone at the same concentration.
After extracting RNA from the cells of each test group using TRIzol (Invitrogen, USA), cDNA was prepared by carrying out PCR (PTC-225 Peltier thermal cycler, MJ Research, USA). Then, the mRNA expression of IL-6, IL-8 and TNF-α was measured through real-time PCR (Roter Gene 6000 series, Corbett Research, Australia) using the cDNA as template and using commercially available IL-6, IL-8 and TNF-α primers. The expression level of the pro-inflammatory cytokines was compared relative to the non-treated group.

cPLA2 = cPLA2 phosphorylation induced by PMA and A23187 in HMC-1 (Western blot); conditions: HMC-1, 2 μg/mL, 50 nM PMA + 1 μM A23187, 4 hours (FIG. 7c)
Procedure: (§1) 1×10^6 HMC-1 cells were inoculated on a 100-mm culture dish and cultured in IMDM containing 10% FBS for 48 hours. […] Then, Western blotting was carried out in the same manner as in Example 2-1 except for using rabbit anti-p-cytosolic phospholipase A2 (cPLA2) antibody, rabbit anti-cPLA2 antibody, rabbit anti-ERK antibody and rabbit anti-p-ERK antibody (Cell Signaling) and using anti-rabbit IgG-HRP conjugation antibody (Zymed) as secondary antibody.

ERK = ERK phosphorylation induced by PMA and A23187 in HMC-1 (Western blot); conditions: HMC-1, 2 μg/mL, 50 nM PMA + 1 μM A23187, 30 minutes (FIG. 7c)
Procedure: as §1

HMC-1 cells = experiment: Degranulation induced by PMA and A23187 in HMC-1 (transmission electron microscopy); conditions: HMC-1, 2 μg/mL, 50 nM PMA + 1 μM A23187, 6 hours (FIG. 8a)
Procedure: In order to investigate the effect of homoisoflavanone on COX-2 expression induced by phorbol 12-myristate 13-acetate and A23187 in HMC-1, 1×10^5 HMC-1 cells were inoculated on a 6-well plate and cultured in IMDM containing 10% FBS for 48 hours. Then, after treating with homoisoflavanone at 2 μg/mL for 1 hour, the cells were treated with 50 nM phorbol 12-myristate 13-acetate and 1 μM A23187 to induce COX-2 expression, and then further cultured for 6 hours. Then, the cells were fixed with 2.5% glutaraldehyde and frozen with liquid nitrogen. The cells were detached from the plate by applying heat, sliced into […], attached on grids, and observed with a transmission electron microscope (TEM).

## COc1ccc(CC2COc3cc(O)cc(O)c3C2=O)cc1O (centres unmarked) [homoisoflavanone]
p38
  phosphorylation of p38: inhibited
IL-8
  expression of IL-8 (mRNA) induced by UV: decreased expression
cPLA2
  cPLA2 phosphorylation: inhibited
ERK
  ERK phosphorylation: no effect
HMC-1 cells
  release of intracellular substances (degranulation, TEM): inhibited
